Assay [1] relates to T-cell. Briefly: CD25 cell surface staining on T-cells stimulated with anti-CD3 antibody alone (Biological Example 2). The format is cell-based. Conditions: 1 μM compound, primary human total T-cells, baseline = anti-CD3/anti-CD28 stimulated cells without inhibitor, read-out: CD25 staining, Anti-CD3 stimulation, fold change over baseline.
Assay [2] deals with T1, Cbl-b (Homo sapiens, UniProt Q13191). Briefly: Cbl-b activity assay (Cbl-b inhibition assay), TR-FRET of Cbl-b interaction with UbcH5B-Ub. The format is biochemical. As to conditions: assay buffer with 100 mM NaCl, 60 nM Src kinase; read-out: Cbl-b activity IC50. In outline: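 UbcH5B (C85K) conjugated to N-terminally Bodipy-Fluorescein-labeled ubiquitin served as the fluorescent partner. After compound preincubation, Src kinase (60 nM) with 1 mM ATP and 5 mM MgCl2 (final) was added for 1.5 h, followed by a further 1 h incubation. Some values were obtained with 50 mM NaCl and 30 nM Src.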

For assay [3], the system named is T-cell. Briefly: IL-2 secretion from T-cells co-stimulated with anti-CD3 and anti-CD28 antibody (Biological Example 2). The format is cell-based, human. Conditions: Homo sapiens, T-cell, primary human total T-cells, baseline = anti-CD3/anti-CD28 stimulated cells without inhibitor, read-out: IL-2 secretion, Anti-CD3/Anti-CD28 stimulation, fold change over baseline; for fold induction at 0.3 µM: 0.3 μM compound; for fold induction at 1 µM: 1 μM compound. In outline: (§1)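 T-cells were stimulated with anti-CD3 antibody alone or with anti-CD28 antibody, in the presence or absence of Cbl-b inhibitor. IL-2 secretion or CD25 surface staining was measured, and values expressed as fold over the uninhibited baseline […].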

Assay [4] relates to T-cell. Briefly: IL-2 secretion from T-cells stimulated with anti-CD3 antibody alone (Biological Example 2). The format is cell-based. As to conditions: 1 μM compound, primary human total T-cells, read-out: IL-2 secretion, Anti-CD3 stimulation, fold change over baseline.
Assay [5] deals with T-cell. As to the kind of experiment: CD25 cell surface staining on T-cells co-stimulated with anti-CD3 and anti-CD28 antibody (Biological Example 2). The format is cell-based, human. Conditions: Homo sapiens, T-cell, primary human total T-cells, baseline = anti-CD3/anti-CD28 stimulated cells without inhibitor, read-out: CD25 staining, Anti-CD3/Anti-CD28 stimulation, fold change over baseline; for fold induction at 0.3 µM: 0.3 μM compound; for fold induction at 1 µM: 1 μM compound. A digest of the protocol: as §1

Assay [6] concerns the target T1, Cbl-b. As to the kind of experiment: Cbl-b inhibition assay (Cbl-b activity assay, FRET, Biological Example 1; 100 mM NaCl, 60 nM Src kinase). In kind it is biochemical. As to conditions: upper bound stated in text lists; read-out: IC50 values in the Cbl-b inhibition assay of Biological Example 1. A digest of the protocol:
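N-terminally biotinylated Avi-tagged Cbl-b was mixed with Src kinase, UbcH5B covalently conjugated to Bodipy-fluorescein ubiquitin, and streptavidin-terbium. Src phosphorylation lets Cbl-b bind UbcH5B-Ub, giving terbium-fluorescein FRET; inhibition is read as loss of FRET signal.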

Where only a bound is given, the exact number is not on record here.

T1 sequence (Q13191 36-427): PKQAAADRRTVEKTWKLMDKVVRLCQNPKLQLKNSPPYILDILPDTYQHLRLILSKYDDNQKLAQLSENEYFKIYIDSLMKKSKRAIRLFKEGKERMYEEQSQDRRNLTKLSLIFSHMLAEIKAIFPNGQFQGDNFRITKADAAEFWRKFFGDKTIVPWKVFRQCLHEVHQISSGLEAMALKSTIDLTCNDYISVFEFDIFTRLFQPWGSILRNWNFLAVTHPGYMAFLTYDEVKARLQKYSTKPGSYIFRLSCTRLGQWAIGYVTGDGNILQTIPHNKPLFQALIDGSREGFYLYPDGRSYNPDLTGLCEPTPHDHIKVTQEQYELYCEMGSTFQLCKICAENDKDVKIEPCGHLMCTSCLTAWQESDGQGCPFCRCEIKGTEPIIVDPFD

As for `Cc1cc(C(=O)Nc2cccc(C(C)(C)Cc3nncn3C)c2)nc(C2CC2)n1` [Compound 511, 2-cyclopropyl-6-methyl-N-{3-[2-methyl-1-(4-methyl-1,2,4-triazol-3-yl)propan-2-yl]phenyl}pyrimidine-4-carboxamide], the fold induction at 1 µM with T-cell [1] is 0.801 to 1; with T-cell [3] it was more than 7.5; in the assay with T-cell [4], 0.101 to 0.15; in the assay on T-cell [5], 1.31 to 1.5. Also, the IC50 was less than 100 nM at Cbl-b [2] and not above 100 nM at Cbl-b [6]. The fold induction at 0.3 µM in the assay on T-cell [3] is 5 to 7.5; in the assay with T-cell [5], 1.31 to 1.5.

For `Cn1cnnc1C(F)(F)[C@](C)(F)c1cccc(NC(=O)c2cc(CN3CC[C@H](F)C3)nc(C3CC3)n2)c1` [Compound 512, 2-cyclopropyl-6-{[(3S)-3-fluoropyrrolidin-1-yl]methyl}-N-{3-[(2R)-1,1,2-trifluoro-1-(4-methyl-1,2,4-triazol-3-yl)propan-2-yl]phenyl}pyrimidine-4-carboxamide], the fold induction at 1 µM in the assay on T-cell [1] lay within 0.801 to 1; in the assay with T-cell [3], 5 to 7.5; in the assay on T-cell [4] it was 0.051 to 0.1; in the assay with T-cell [5] it was 1.01 to 1.3. Further, the IC50 on Cbl-b [2] was less than 100 nM; on Cbl-b [6], not above 100 nM. Besides, the figures for the fold induction at 0.3 µM in the assay on T-cell [3] and with T-cell [5] were 2.51 to 5 and 1.01 to 1.3, respectively.

Take `Cn1cnnc1CC1(c2cccc(N3Cc4c(cc(OC5CC5)cc4C(F)(F)F)C3=O)c2)COC1` [Compound 513, 6-cyclopropoxy-2-(3-{3-[(4-methyl-1,2,4-triazol-3-yl)methyl]oxetan-3-yl}-phenyl)-4-(trifluoromethyl)-3H-isoindol-1-one]: the fold induction at 1 µM is more than 1 in the assay with T-cell [1], 2.51 to 5 in the assay with T-cell [3], 0.151 to 0.2 in the assay with T-cell [4] and 1.01 to 1.3 in the assay on T-cell [5]. Moreover, the IC50 was less than 100 nM at Cbl-b [2] and not above 100 nM on Cbl-b [6]. The fold induction at 0.3 µM in the assay with T-cell [3] lay in the range of 1.01 to 2.5; in the assay on T-cell [5], 1.01 to 1.3.

In the case of `Cn1cnnc1CC1(c2cccc(N3Cc4c(cc(OC5CNC5)cc4C(F)(F)F)C3=O)c2)COC1` [Compound 514, 6-(azetidin-3-yloxy)-2-(3-{3-[(4-methyl-1,2,4-triazol-3-yl)methyl]oxetan-3-yl}phenyl)-4-(trifluoromethyl)-3H-isoindol-1-one], the fold induction at 1 µM with T-cell [1] fell in the range of 0.801 to 1; in the assay on T-cell [3], 1.01 to 2.5; in the assay with T-cell [4] it was 0.051 to 0.1; in the assay with T-cell [5], 1.01 to 1.3. Besides, the IC50 at Cbl-b [2] is less than 100 nM; at Cbl-b [6], not above 100 nM. Moreover, the fold induction at 0.3 µM was 1.01 to 2.5 in the assay with T-cell [3] and 1.01 to 1.3 in the assay on T-cell [5].

As to `Cc1cc(C(=O)Nc2cccc(-c3c(-c4nncn4C)cnn3C)c2)nc(C2CC2)n1` [Compound 522, 2-cyclopropyl-6-methyl-N-(3-(l-methyl-4-(4-methyl-4H-1,2,4-triazol-3-yl)-1H-pyrazol-5-yl)phenyl)pyrimidine-4-carboxamide], the fold induction at 1 µM with T-cell [1] lay within 0.601 to 0.8; with T-cell [3] it was 1.01 to 2.5; in the assay with T-cell [4], 0.101 to 0.15; in the assay on T-cell [5] it was 1.01 to 1.3. For the same compound, the IC50 is 100 to 300 nM at Cbl-b [2] and not above 300 nM at Cbl-b [6]. The fold induction at 0.3 µM was in the range of 1.01 to 2.5 in the assay on T-cell [3] and 1.01 to 1.3 in the assay with T-cell [5].

As for `Cn1cnnc1-c1cnn(C)c1-c1cccc(N2Cc3c(cccc3C(F)(F)F)C2=O)c1` [Compound 523, 2-(3-(l-methyl-4-(4-methyl-4H-1,2,4-triazol-3-yl)-1H-pyrazol-5-yl)phenyl)-4-(trifluoromethyl)isoindolin-1-one], the fold induction at 1 µM in the assay on T-cell [1] was in the range of 0.601 to 0.8; in the assay with T-cell [3], 1.01 to 2.5; in the assay with T-cell [4], 0.051 to 0.1; in the assay on T-cell [5], 1.01 to 1.3. Moreover, the IC50 on Cbl-b [2] was 100 to 300 nM; on Cbl-b [6] it was not above 300 nM. The fold induction at 0.3 µM lay in the range of 1.01 to 2.5 in the assay on T-cell [3] and 1.01 to 1.3 in the assay on T-cell [5].

Regarding `Cc1cc(C(=O)Nc2cccc(C3(Cc4nncn4C)CC(F)(F)C3)c2)nc(C2CC2)n1` [Compound 526, 2-cyclopropyl-N-(3-(3,3-difluoro-1-((4-methyl-4H-1,2,4-triazol-3-yl)methyl)cyclobutyl)phenyl)-6-methylpyrimidine-4-carboxamide], the fold induction at 1 µM in the assay with T-cell [1] is more than 1; in the assay with T-cell [3], more than 7.5; in the assay on T-cell [4], more than 0.201; in the assay on T-cell [5], 1.01 to 1.3. Also, the IC50 on Cbl-b [2] is less than 100 nM; on Cbl-b [6] it was not above 100 nM. Moreover, the fold induction at 0.3 µM in the assay with T-cell [3] was 5 to 7.5; with T-cell [5] it was 1.01 to 1.3.

For the compound `Cn1cnnc1CC1(c2cccc(N3Cc4c(cccc4C(F)(F)F)C3=O)c2)CC(F)(F)C1` [Compound 527, 2-(3-(3,3-difluoro-1-((4-methyl-4H-1,2,4-triazol-3-yl)methyl)cyclobutyl)-phenyl)-4-(trifluoromethyl)isoindolin-1-one], the fold induction at 1 µM was more than 1 in the assay with T-cell [1], 5 to 7.5 in the assay on T-cell [3], more than 0.201 in the assay with T-cell [4] and 1.01 to 1.3 with T-cell [5]. The IC50 on Cbl-b [2] was less than 100 nM; on Cbl-b [6], not above 100 nM. Moreover, the results for the fold induction at 0.3 µM with T-cell [3] and in the assay on T-cell [5] were 2.51 to 5 and 1.01 to 1.3, respectively.

For the compound `Cn1cnnc1CC1(c2cccc(N3Cc4c(cc(CN5CCCC(F)(F)CC5)cc4C(F)(F)F)C3=O)c2)COC1` [Compound 528, 6-((4,4-difluoroazepan-1-yl)methyl)-2-(3-(3-((4-methyl-4H-1,2,4-triazol-3-yl)methyl)oxetan-3-yl)phenyl)-4-(trifluoromethyl)isoindolin-1-one], the fold induction at 1 µM in the assay on T-cell [1] is more than 1; with T-cell [3], more than 7.5; in the assay on T-cell [4], more than 0.201; with T-cell [5], 1.01 to 1.3. The results for the IC50 at Cbl-b [2] and at Cbl-b [6] were less than 100 nM and not above 100 nM, respectively. In addition, the fold induction at 0.3 µM in the assay on T-cell [3] was more than 7.5; in the assay with T-cell [5] it was 1.01 to 1.3.

As for `Cn1cnnc1CC1(c2cccc(N3Cc4c(cc(CC5CCCO5)cc4C(F)(F)F)C3=O)c2)COC1` (stereo not drawn) [Compound 529, 2-(3-(3-((4-methyl-4H-1,2,4-triazol-3-yl)methyl)oxetan-3-yl)phenyl)-6-((THF-2-yl)methyl)-4-(trifluoromethyl)isoindolin-1-one], the fold induction at 1 µM in the assay with T-cell [1] is 0.801 to 1; with T-cell [3], more than 7.5; in the assay on T-cell [4], 0.101 to 0.15; in the assay with T-cell [5], 1.01 to 1.3. Besides, the IC50 on Cbl-b [2] was less than 100 nM; at Cbl-b [6] it was not above 100 nM. Further, the fold induction at 0.3 µM in the assay with T-cell [3] fell in the range of 2.51 to 5; in the assay on T-cell [5] it was 1.01 to 1.3.

Regarding `CN1CCC(=O)C(Cc2cc3c(c(C(F)(F)F)c2)CN(c2cccc(C4(Cc5nncn5C)COC4)c2)C3=O)C1` (stereo not drawn) [Compound 531, 6-((l-methyl-4-oxopiperidin-3-yl)methyl)-2-(3-(3-((4-methyl-4H-1,2,4-triazol-3-yl)methyl)oxetan-3-yl)phenyl)-4-(trifluoromethyl)isoindolin-1-one], the fold induction at 1 µM in the assay on T-cell [1] is more than 1; in the assay on T-cell [3] it was more than 7.5; with T-cell [4], more than 0.201; in the assay with T-cell [5] it was 1.01 to 1.3. Further, the IC50 on Cbl-b [2] is less than 100 nM; on Cbl-b [6] it was not above 100 nM. For the same compound, the fold induction at 0.3 µM in the assay with T-cell [3] is more than 7.5; with T-cell [5] it was 1.01 to 1.3.

Regarding `Cc1conc1CC1(c2cccc(N3Cc4c(cc(CN5CCC6(CC6)C5)cc4C(F)(F)F)C3=O)c2)COC1` [Compound 535, 6-{5-azaspiro[2.4]heptan-5-ylmethyl}-2-(3-{3-[(4-methyl-1,2-oxazol-3-yl)methyl]oxetan-3-yl}phenyl)-4-(trifluoromethyl)-3H-isoindol-1-one], the fold induction at 1 µM with T-cell [1] was more than 1; in the assay with T-cell [3], more than 7.5; with T-cell [4] it was more than 0.201; in the assay with T-cell [5], 1.31 to 1.5. The IC50 on Cbl-b [2] was less than 100 nM; on Cbl-b [6] it was not above 100 nM. Also, the fold induction at 0.3 µM in the assay with T-cell [3] is more than 7.5; with T-cell [5], 1.31 to 1.5.

As usually defined, the IC50 is the concentration that gives 50% inhibition.
